Measured values from US20250034523A1, “METHODS OF GENERATING HUMAN COCHLEAR HAIR CELLS” (THE TRUSTEES OF INDIANA UNIVERSITY, priority 2021, published 2025).

Test system: hESC-derived PAX2-nGFP+ otic progenitors
Experiment: ventral/dorsal otic marker expression in otic progenitors (D20 scRNA-seq, D25 immunofluorescence)
Type: cell-based, human
Experimental: PAX2-2A-nGFP/POU4F3-2A-ntdTomat hESCs (passages 22-50) were maintained and passaged in Essential 8 Flex Medium (Thermo Fisher, A2858501) supplemented with 100 μg/ml Normocin (E8fn) on recombinant human Vitronectin-N(Thermo Fisher, A14700)-coated 6-well plates. Human inner ear organoids were derived from hESCs based on the inventors' previous protocol 8.10 with major modifications. Briefly, hESCs were dissociated with StemPro Accutase (Thermo Fisher, A1110501) and distributed at 3500 cells per well onto low-adhesion 96-well U-bottom plates in 100 μL E8fn containing 20 μM Y-27632 (Stemgent, 04-0012-02) and forcibly aggregated at 120 g for 5 minutes. 100 μL of E8fn was added to each well after >4 h of incubation. Induction of non-neural epithelium occurred following 48 h of aggregation, marking differentiation day 0, as follows: aggregates were washed extensively in DMEM:F12 with HEPES buffer (DFH) (Thermo Fisher, 11320033) and transferred to new 96-well U-bottom plates in 100 μL of E6 medium (Thermo Fisher, A1516401) with Normocin (E6n) containing 4 ng mL^−1 FGF-2 (StemCell Technologies, 780003), 10 μM SB-431542 (Stemgent, 04-0010-05), and 2% growth factor reduced (GFR) Matrigel (Corning, 354230). On day 3 of differentiation, 25 μL of E6n containing 50 ng/ml FGF-2 and 200 nM LDN-193189 (Stemgent, 04-0074-02) was added to each well. […]

c1ccc2c(Oc3nc(Nc4ccc(N5CCOCC5)cc4)c4ncn(C5CCCCC5)c4n3)cccc2c1 [PUR, 9H-Purin-6-amine, 9-cyclohexyl-N-[4-(4-morpholinyl)phenyl]-2-(1-naphthalenyloxy)-]
ventral otic marker expression (D20-D25 organoids): not sufficient | expression of SHH pathway genes SULF1, LRP2, GAS1, PTCH1 (D20 otic progenitors): attenuated
